In one experiment the target is D(1A) dopamine receptor (Homo sapiens, UniProt P21728). The experiment in a line: Selectivity interaction (GPCR panel (PDSP screen)) EUB0000335a DRD1.
The target in experiment [1] is Cyclin-dependent kinase 3 (Homo sapiens) (UniProt Q00526). Put plainly: Selectivity interaction (KinomeScan (DiscoverX)) EUB0000335a CDK3. The following applies: at 1 µM.
For experiment [2], the target named is Mitotic checkpoint serine/threonine-protein kinase BUB1 (Homo sapiens) (UniProt O43683). The experiment in a line: Selectivity interaction (KinomeScan (DiscoverX)) EUB0000335a BUB1. Conditions: at 1 µM.
Mitotic checkpoint serine/threonine-protein kinase BUB1 (Homo sapiens), sequence (O43683 whole entry, looked up): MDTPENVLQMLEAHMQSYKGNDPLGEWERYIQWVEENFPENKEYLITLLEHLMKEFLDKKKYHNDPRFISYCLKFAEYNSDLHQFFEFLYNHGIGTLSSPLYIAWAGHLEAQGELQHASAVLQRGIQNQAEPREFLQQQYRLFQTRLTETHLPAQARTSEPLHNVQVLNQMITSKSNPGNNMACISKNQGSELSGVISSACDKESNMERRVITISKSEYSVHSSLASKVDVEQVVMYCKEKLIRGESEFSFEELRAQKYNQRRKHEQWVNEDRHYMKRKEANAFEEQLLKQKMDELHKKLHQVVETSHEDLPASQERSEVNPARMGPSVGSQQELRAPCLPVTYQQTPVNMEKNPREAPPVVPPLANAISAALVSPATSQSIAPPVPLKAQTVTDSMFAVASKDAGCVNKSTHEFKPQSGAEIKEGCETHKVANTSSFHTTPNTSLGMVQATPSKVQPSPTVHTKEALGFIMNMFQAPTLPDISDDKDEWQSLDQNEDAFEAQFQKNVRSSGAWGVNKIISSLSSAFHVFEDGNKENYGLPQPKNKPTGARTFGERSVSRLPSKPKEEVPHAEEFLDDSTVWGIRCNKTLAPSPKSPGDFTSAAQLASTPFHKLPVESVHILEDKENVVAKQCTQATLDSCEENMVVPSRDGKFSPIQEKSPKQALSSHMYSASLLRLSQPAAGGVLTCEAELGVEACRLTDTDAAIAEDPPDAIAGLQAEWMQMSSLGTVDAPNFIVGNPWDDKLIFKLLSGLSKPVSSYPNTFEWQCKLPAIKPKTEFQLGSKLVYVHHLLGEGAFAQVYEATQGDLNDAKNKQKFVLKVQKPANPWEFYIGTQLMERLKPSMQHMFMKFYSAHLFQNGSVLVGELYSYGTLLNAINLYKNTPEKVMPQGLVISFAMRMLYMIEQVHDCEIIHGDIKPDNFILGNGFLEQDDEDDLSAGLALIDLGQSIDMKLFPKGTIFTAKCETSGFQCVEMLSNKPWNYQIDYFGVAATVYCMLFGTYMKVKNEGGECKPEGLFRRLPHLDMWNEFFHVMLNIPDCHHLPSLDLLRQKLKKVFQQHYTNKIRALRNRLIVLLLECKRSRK
Experiment [3] has as its target Serine/threonine-protein kinase WNK2 (Homo sapiens) (UniProt Q9Y3S1). The experiment in a line: Selectivity interaction (KinomeScan (DiscoverX)) EUB0000335a WNK2. The following applies: at 1 µM.
For experiment [4], the target named is T1, Mitogen-activated protein kinase kinase kinase 13 (Homo sapiens) (UniProt O43283).
T1 sequence (whole entry): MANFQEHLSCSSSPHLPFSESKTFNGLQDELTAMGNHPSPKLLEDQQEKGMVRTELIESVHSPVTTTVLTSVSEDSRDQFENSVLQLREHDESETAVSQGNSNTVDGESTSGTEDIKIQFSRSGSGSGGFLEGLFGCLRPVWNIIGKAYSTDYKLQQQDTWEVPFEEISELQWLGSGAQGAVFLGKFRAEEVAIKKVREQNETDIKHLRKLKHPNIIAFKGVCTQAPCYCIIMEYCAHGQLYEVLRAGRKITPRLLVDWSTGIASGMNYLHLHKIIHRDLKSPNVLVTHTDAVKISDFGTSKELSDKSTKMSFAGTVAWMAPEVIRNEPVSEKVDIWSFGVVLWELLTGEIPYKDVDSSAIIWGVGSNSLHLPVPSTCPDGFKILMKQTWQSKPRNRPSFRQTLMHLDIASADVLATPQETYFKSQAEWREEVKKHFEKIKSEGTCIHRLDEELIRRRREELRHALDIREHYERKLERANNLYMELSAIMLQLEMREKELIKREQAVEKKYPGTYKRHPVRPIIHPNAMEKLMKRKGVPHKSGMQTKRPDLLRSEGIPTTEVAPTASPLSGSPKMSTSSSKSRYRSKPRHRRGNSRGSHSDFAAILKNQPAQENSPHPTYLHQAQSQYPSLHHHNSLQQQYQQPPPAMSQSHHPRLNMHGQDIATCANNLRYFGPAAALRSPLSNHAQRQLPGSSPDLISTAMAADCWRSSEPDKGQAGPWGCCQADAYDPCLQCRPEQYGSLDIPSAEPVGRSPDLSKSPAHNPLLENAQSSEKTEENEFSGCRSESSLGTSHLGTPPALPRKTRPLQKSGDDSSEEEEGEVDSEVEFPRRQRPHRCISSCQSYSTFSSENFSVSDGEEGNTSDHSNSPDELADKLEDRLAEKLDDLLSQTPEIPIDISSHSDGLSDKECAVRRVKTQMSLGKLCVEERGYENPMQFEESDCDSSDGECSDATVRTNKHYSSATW
Put plainly: Selectivity interaction (KinomeScan (DiscoverX)) EUB0000335a MAP3K13. Conditions: at 1 µM.

The target of experiment [5] is Receptor-interacting serine/threonine-protein kinase 1 (Homo sapiens) (UniProt Q13546). Put plainly: Selectivity interaction (KinomeScan (DiscoverX)) EUB0000335a RIPK1. The following applies: at 1 µM.
Receptor-interacting serine/threonine-protein kinase 1 (Homo sapiens), sequence (Q13546 whole entry): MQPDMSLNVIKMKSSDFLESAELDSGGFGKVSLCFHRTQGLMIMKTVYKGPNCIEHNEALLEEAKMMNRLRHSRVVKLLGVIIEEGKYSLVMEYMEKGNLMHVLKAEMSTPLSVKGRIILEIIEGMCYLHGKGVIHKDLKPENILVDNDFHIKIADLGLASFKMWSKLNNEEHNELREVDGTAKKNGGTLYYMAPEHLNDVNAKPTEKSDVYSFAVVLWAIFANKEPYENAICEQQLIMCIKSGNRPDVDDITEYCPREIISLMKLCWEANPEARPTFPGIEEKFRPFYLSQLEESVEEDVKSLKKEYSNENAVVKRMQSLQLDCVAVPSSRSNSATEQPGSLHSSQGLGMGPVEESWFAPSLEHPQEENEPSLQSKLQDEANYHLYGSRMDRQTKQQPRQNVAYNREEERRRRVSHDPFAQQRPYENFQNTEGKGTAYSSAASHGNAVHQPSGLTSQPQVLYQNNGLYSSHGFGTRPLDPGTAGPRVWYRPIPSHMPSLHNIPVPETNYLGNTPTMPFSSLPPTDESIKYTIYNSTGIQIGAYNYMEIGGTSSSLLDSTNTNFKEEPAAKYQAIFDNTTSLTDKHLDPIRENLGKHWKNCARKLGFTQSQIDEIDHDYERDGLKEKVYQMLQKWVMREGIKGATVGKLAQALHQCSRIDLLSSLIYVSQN
A further experiment concerns the target D(2) dopamine receptor (Homo sapiens, UniProt P14416). Put plainly: Selectivity interaction (GPCR panel (PDSP screen)) EUB0000725a DRD2. Conditions: at 10 µM.
Experiment [6] addresses Macrophage metalloelastase (Homo sapiens, UniProt P39900). Put plainly: Selectivity interaction (MMPs panel (Panlabs panel, Bayer)) EUB0000725a MMP12.
In another experiment the target is Collagenase 3 (Homo sapiens, UniProt P45452). Put plainly: Selectivity interaction (MMPs panel (Panlabs panel, Bayer)) EUB0000725a MMP13.
The target of a further experiment is Interstitial collagenase (Homo sapiens, UniProt P03956). Put plainly: Selectivity interaction (MMPs panel (Panlabs panel, Bayer)) EUB0000725a MMP1.
Experiment [7] deals with Matrix metalloproteinase-14 (Homo sapiens, UniProt P50281). The experiment in a line: Selectivity interaction (MMPs panel (Panlabs panel, Bayer)) EUB0000725a MMP14.
Experiment [8] deals with 72 kDa type IV collagenase (Homo sapiens, UniProt P08253). Put plainly: Selectivity interaction (MMPs panel (Panlabs panel, Bayer)) EUB0000725a MMP2.
72 kDa type IV collagenase, sequence (P08253 whole entry): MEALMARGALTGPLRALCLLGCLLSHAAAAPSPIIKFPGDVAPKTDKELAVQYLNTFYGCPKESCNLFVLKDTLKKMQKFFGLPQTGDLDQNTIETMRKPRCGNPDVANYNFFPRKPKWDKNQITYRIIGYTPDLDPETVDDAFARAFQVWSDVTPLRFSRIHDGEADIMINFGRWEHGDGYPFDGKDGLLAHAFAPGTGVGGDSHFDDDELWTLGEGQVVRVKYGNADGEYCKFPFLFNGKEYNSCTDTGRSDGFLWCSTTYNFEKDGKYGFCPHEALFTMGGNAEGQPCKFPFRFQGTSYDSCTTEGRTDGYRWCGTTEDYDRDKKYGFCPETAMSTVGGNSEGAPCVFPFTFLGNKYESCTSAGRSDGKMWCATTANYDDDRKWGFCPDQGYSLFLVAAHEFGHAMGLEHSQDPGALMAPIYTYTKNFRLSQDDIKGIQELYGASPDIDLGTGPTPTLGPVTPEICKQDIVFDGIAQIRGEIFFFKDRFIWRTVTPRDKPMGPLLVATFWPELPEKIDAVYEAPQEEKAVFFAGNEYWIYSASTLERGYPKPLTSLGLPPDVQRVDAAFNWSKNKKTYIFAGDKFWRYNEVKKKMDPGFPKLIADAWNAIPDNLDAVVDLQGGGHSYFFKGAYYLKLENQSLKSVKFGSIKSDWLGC
The next experiment concerns the target Stromelysin-1 (Homo sapiens, UniProt P08254). Put plainly: Selectivity interaction (MMPs panel (Panlabs panel, Bayer)) EUB0000725a MMP3.
The next experiment has as its target T2, Matrilysin (Homo sapiens, UniProt P09237).
T2 sequence (P09237 whole entry): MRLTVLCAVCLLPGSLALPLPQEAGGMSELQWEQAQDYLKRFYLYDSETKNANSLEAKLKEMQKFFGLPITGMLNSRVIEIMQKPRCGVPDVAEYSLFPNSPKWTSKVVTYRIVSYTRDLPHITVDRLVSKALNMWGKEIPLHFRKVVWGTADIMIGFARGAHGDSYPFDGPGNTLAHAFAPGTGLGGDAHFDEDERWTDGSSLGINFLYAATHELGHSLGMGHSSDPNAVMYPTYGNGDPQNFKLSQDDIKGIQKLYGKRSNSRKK
The experiment in a line: Selectivity interaction (MMPs panel (Panlabs panel, Bayer)) EUB0000725a MMP7.

In another experiment the target is Neutrophil collagenase (Homo sapiens, UniProt P22894). The experiment in a line: Selectivity interaction (MMPs panel (Panlabs panel, Bayer)) EUB0000725a MMP8.
In experiment [9] the target is Matrix metalloproteinase-9 (Homo sapiens, UniProt P14780). The experiment in a line: Selectivity interaction (MMPs panel (Panlabs panel, Bayer)) EUB0000725a MMP9.
Matrix metalloproteinase-9, sequence (P14780 whole entry): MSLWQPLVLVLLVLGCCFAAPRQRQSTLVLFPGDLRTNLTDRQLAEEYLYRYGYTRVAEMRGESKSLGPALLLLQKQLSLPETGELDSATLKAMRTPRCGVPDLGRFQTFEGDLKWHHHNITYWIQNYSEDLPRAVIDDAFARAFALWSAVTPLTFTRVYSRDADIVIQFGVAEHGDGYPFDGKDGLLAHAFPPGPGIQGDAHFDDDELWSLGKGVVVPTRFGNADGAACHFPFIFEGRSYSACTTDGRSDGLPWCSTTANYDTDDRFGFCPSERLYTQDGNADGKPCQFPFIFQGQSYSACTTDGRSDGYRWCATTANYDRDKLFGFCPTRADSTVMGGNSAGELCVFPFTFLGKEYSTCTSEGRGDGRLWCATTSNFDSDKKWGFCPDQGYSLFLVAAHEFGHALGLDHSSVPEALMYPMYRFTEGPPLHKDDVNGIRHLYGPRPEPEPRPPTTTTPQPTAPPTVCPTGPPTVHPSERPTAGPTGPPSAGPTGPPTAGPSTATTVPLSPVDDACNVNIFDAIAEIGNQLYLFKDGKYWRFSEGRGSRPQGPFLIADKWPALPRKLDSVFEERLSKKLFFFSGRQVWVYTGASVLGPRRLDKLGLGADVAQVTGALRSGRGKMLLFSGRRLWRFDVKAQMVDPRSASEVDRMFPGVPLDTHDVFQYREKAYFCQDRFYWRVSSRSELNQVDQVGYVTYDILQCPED
Experiment [10] addresses Uncharacterized serine/threonine-protein kinase SBK3 (Homo sapiens) (UniProt P0C264). Put plainly: Selectivity interaction (KinomeScan (DiscoverX)) EUB0000725a SBK3. Conditions: at 10 µM.
Experiment [11] addresses Phosphatidylinositol 4,5-bisphosphate 3-kinase catalytic subunit alpha isoform (Homo sapiens, UniProt P42336). The experiment in a line: Selectivity interaction (KinomeScan (DiscoverX)) EUB0000725a PIK3CA. Conditions: at 10 µM.

The source of these data is ChEMBL document CHEMBL5212743, “Selectivity Literature for EUbOPEN Chemogenomics Library wave 3” (2023).

Uncharacterized serine/threonine-protein kinase SBK3 (Homo sapiens), sequence (P0C264 whole entry, canonical isoform): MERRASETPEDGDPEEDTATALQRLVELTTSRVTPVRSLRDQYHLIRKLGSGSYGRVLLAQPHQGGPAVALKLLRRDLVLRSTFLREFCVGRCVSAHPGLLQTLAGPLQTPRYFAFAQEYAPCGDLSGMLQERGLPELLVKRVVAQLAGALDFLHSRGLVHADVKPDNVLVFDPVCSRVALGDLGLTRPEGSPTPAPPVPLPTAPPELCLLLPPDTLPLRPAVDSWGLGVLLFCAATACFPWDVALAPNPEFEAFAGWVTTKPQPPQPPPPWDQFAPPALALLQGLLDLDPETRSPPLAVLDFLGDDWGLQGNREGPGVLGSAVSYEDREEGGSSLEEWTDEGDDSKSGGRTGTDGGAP
D(1A) dopamine receptor, sequence (P21728 whole entry): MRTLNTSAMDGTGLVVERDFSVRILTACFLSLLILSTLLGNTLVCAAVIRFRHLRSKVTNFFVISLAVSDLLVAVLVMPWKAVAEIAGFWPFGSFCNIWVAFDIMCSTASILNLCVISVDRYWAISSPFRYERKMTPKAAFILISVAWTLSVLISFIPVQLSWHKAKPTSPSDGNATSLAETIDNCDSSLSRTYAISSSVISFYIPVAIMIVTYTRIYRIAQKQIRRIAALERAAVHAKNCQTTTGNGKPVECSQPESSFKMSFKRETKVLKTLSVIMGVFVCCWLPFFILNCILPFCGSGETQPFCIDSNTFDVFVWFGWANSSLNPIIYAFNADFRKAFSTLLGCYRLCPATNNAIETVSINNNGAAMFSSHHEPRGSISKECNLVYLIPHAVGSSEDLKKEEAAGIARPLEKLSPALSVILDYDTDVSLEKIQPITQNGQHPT
D(2) dopamine receptor, sequence (P14416 whole entry): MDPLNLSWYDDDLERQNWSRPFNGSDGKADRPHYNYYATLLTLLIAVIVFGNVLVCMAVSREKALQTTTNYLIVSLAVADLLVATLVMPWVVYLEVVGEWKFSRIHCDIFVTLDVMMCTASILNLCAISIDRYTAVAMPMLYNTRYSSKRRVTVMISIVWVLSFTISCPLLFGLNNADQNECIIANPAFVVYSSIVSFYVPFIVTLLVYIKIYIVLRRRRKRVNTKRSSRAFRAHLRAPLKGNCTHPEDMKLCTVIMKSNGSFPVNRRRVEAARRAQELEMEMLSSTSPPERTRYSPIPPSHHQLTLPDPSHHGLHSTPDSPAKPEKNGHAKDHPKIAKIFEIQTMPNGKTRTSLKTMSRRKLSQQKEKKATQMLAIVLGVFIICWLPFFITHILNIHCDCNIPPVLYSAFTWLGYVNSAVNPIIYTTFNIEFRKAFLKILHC
Stromelysin-1, sequence (P08254 whole entry): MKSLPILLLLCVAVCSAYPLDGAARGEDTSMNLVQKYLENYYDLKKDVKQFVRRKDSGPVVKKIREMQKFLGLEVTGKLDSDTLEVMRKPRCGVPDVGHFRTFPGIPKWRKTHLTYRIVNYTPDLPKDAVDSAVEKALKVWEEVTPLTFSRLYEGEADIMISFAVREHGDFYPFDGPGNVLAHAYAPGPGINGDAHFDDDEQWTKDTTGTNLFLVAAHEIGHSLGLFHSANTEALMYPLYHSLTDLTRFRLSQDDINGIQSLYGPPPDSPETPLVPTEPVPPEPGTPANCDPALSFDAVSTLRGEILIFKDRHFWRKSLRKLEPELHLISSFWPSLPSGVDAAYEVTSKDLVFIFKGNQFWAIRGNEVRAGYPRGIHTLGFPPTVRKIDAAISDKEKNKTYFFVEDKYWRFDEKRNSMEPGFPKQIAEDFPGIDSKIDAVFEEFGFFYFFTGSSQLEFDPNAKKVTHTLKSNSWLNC

Regarding `O=C(NCc1ncc(C(F)(F)F)cc1Cl)c1ccc2c(c1)C1(CCS(=O)(=O)CC1)[C@@H](C1CC1)N2S(=O)(=O)c1ccc(F)cc1` [BAY-786], the Ki (as a rule, a measure of affinity in units of concentration, obtained from inhibition or displacement) on D(1A) dopamine receptor was over 10 µM. The % of control is 41% in [1]; 1.9% in experiment [2]; 0% in experiment [3]; 0% in experiment [4]; 30% in [5].
The compound `O=C(O)[C@@H]1[C@@H](Cn2nnc3ccccc3c2=O)CC[C@H]1C(=O)c1ccc(OCCC2CCOCC2)cc1` [BAY-694] showed a % of inhibition at D(2) dopamine receptor of 30%. Also, the IC50 (in experiment [6]; at Collagenase 3; at Interstitial collagenase; in experiment [7]; in experiment [8]; against Stromelysin-1) was over 10 µM each time. Besides, the IC50 (against Matrilysin; on Neutrophil collagenase; in experiment [9]) was over 10 µM each time. In addition, the % of control in [10] turned out to be 43%; in experiment [11], 34%.
